The subject of this assay is 521955-158-R2-J5-PDC spheroids with stroma, growth inhibition. Briefly: Anticancer human tumor 521955-158-R2-J5-PDC patient-derived pancreatic carcinoma cell line growth inhibition [TAK]. Particulars: for viability, T/C: stronger effect = lower value. A digest of the protocol: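 Drug combinations, each paired with TAK-243 or ipatasertib, were tested on multi-cell spheroids of 60% malignant cells, 25% HUVEC and 15% hMSC. Top concentrations were at or near the clinical Cmax (10 microM if undetermined), decreasing by half-log; viability is given as % test/control.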

[1] abbreviates: curve of first compound, second compound 0.3 µM.
Where [2] appears, read: curve of first compound, second compound 0.949 µM.
The mark [3] stands for this setting: curve of first compound, second compound 3 µM.
[4] abbreviates: curve of first compound, second compound 9.49 µM.
[5] abbreviates: curve of first compound, second compound 30 µM.

This passage reports viability, T/C and IC50 results from PubChem BioAssay AID2060353 (Molecular Pharmacology Branch, DTP, NCI, 2025).

Molecules are shown by their SMILES. Where “and” joins values, the source holds several entries; their conditions need not be identical. Equal entries are not always repeated.
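Further: spheroids exposed to drugs for seven days before readout.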
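Wherever viability, T/C is given: 100% = DMSO vehicle control viability.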

In the case of `CC(=O)Nc1cccc(-n2c(=O)n(C3CC3)c(=O)c3c(Nc4ccc(I)cc4F)n(C)c(=O)c(C)c32)c1`, the viability, T/C runs as follows: (compound 94.9 pM) 104% and 87%; (compound 0.0003 µM) 79.1% and 65.4%; (compound 0.000949 µM) 52% and 51.3%; (compound 0.003 µM) 48.2% and 48.1%; (compound 0.00949 µM) 38.6% and 39.5%; (compound 0.03 µM) 27.5% and 24.4%. In addition, the half-inhibitory concentration (IC50) (curve of compound) is 1.87 nM and 1.69 nM.

On to `CC(C)n1nc(-c2ccc3oc(N)nc3c2)c2c(N)ncnc21` + CC(C)NCC(C(=O)N1CCN(c2ncnc3c2C(C)CC3O)CC1)c1ccc(Cl)cc1, for which the IC50 was determined as 32 nM under setting [1]; 34.9 nM under setting [2]; 17.7 nM under setting [3]; 8.6 nM under setting [4]; 0.516 nM under setting [5]. Also, the viability, T/C is 106% (second compound 0.3 µM, first compound 0.000316 µM); 96.9% (second compound 0.3 µM, first compound 0.001 µM); 85% (second compound 0.3 µM, first compound 0.00316 µM); 60.4% (second compound 0.3 µM, first compound 0.01 µM); 54.8% (second compound 0.3 µM, first compound 0.0316 µM); 36.5% (second compound 0.3 µM, first compound 0.1 µM). In addition, the viability, T/C (second compound 0.949 µM, first compound 0.000316 µM) was 78.3%; the viability, T/C (second compound 0.949 µM, first compound 0.001 µM) was 69.3%; the viability, T/C (second compound 0.949 µM, first compound 0.00316 µM) was 65.7%; the viability, T/C (second compound 0.949 µM, first compound 0.01 µM) is 66.9%; the viability, T/C (second compound 0.949 µM, first compound 0.0316 µM) is 49.6%; the viability, T/C (second compound 0.949 µM, first compound 0.1 µM) was 36%. Moreover, the viability, T/C by setting is: (second compound 3 µM, first compound 0.000316 µM) 83.5%; (second compound 3 µM, first compound 0.001 µM) 77.8%; (second compound 3 µM, first compound 0.00316 µM) 84.8%; (second compound 3 µM, first compound 0.01 µM) 62.3%; (second compound 3 µM, first compound 0.0316 µM) 37.6%; (second compound 3 µM, first compound 0.1 µM) 28.2%. In addition, the viability, T/C was 110% (second compound 9.49 µM, first compound 0.000316 µM); 102% (second compound 9.49 µM, first compound 0.001 µM); 79.2% (second compound 9.49 µM, first compound 0.00316 µM); 44.2% (second compound 9.49 µM, first compound 0.01 µM); 29.1% (second compound 9.49 µM, first compound 0.0316 µM); 19.3% (second compound 9.49 µM, first compound 0.1 µM). The viability, T/C runs as follows: (second compound 30 µM, first compound 0.000316 µM) 52.1%; (second compound 30 µM, first compound 0.001 µM) 47.1%; (second compound 30 µM, first compound 0.00316 µM) 37.5%; (second compound 30 µM, first compound 0.01 µM) 17.1%; (second compound 30 µM, first compound 0.0316 µM) 10.4%; (second compound 30 µM, first compound 0.1 µM) 9.55%.

For the molecule `Cn1cnc2c(F)c(Nc3ccc(Br)cc3Cl)c(C(=O)NOCCO)cc21`, the viability, T/C reads like this: (compound 0.00949 µM) 77.5% and 65.7%; (compound 0.03 µM) 49.3% and 60.3%; (compound 0.0949 µM) 45.1% and 51.2%; (compound 0.3 µM) 42.5% and 42.8%; (compound 0.949 µM) 40.2% and 36%; (compound 3 µM) 34% and 28.5%. Moreover, the IC50 (curve of compound) is 38.2 nM and 117 nM.

As for `CCCS(=O)(=O)Nc1ccc(F)c(C(=O)c2c[nH]c3ncc(-c4ccc(Cl)cc4)cc23)c1F` + CC(C)NCC(C(=O)N1CCN(c2ncnc3c2C(C)CC3O)CC1)c1ccc(Cl)cc1, the IC50 under setting [1] is greater than 100000 nM; the IC50 under setting [2] was greater than 100000 nM; the IC50 under setting [3] is 15900 nM; the IC50 under setting [4] was 6340 nM; the IC50 under setting [5] stood at 1140 nM. For the same molecule, the viability, T/C by setting is: (second compound 0.3 µM, first compound 0.316 µM) 107%; (second compound 0.3 µM, first compound 1 µM) 134%; (second compound 0.3 µM, first compound 3.16 µM) 108%; (second compound 0.3 µM, first compound 10 µM) 165%; (second compound 0.3 µM, first compound 31.6 µM) 18.9%; (second compound 0.3 µM, first compound 100 µM) 122%. Besides, the viability, T/C by setting is: (second compound 0.949 µM, first compound 0.316 µM) 108%; (second compound 0.949 µM, first compound 1 µM) 123%; (second compound 0.949 µM, first compound 3.16 µM) 107%; (second compound 0.949 µM, first compound 10 µM) 103%; (second compound 0.949 µM, first compound 31.6 µM) 22.2%; (second compound 0.949 µM, first compound 100 µM) 111%. Besides, the viability, T/C is 100% (second compound 3 µM, first compound 0.316 µM); 99.4% (second compound 3 µM, first compound 1 µM); 99.2% (second compound 3 µM, first compound 3.16 µM); 70.1% (second compound 3 µM, first compound 10 µM); 19.9% (second compound 3 µM, first compound 31.6 µM); 12.1% (second compound 3 µM, first compound 100 µM). In addition, the viability, T/C (second compound 9.49 µM, first compound 0.316 µM) is 84.8%; the viability, T/C (second compound 9.49 µM, first compound 1 µM) was 89.8%; the viability, T/C (second compound 9.49 µM, first compound 3.16 µM) was 69.9%; the viability, T/C (second compound 9.49 µM, first compound 10 µM) is 36.1%; the viability, T/C (second compound 9.49 µM, first compound 31.6 µM) was 14.2%; the viability, T/C (second compound 9.49 µM, first compound 100 µM) was 6.73%. In addition, the viability, T/C is 51.7% (second compound 30 µM, first compound 0.316 µM); 50.9% (second compound 30 µM, first compound 1 µM); 40.4% (second compound 30 µM, first compound 3.16 µM); 5.79% (second compound 30 µM, first compound 10 µM); 4.82% (second compound 30 µM, first compound 31.6 µM); 4.7% (second compound 30 µM, first compound 100 µM).

For the molecule `CCCS(=O)(=O)Nc1ccc(F)c(C(=O)c2c[nH]c3ncc(-c4ccc(Cl)cc4)cc23)c1F`, the viability, T/C by setting is: (compound 0.316 µM) 77.5% and 89.5%; (compound 1 µM) 89% and 87.9%; (compound 3.16 µM) 132% and 116%; (compound 10 µM) 149% and 164%; (compound 31.6 µM) 165% and 24.2%; (compound 100 µM) 187% and 232%. Moreover, the IC50 (curve of compound) is greater than 100000 nM.

For `COC1CC2CCC(C)C(O)(O2)C(=O)C(=O)N2CCCCC2C(=O)OC(C(C)CC2CCC(OCCO)C(OC)C2)CC(=O)C(C)C=C(C)C(O)C(OC)C(=O)C(C)CC(C)C=CC=CC=C1C` (stereo not given), the viability, T/C is, setting by setting: (compound 0.000316 µM) 102% and 111%; (compound 0.001 µM) 105% and 97.8%; (compound 0.00316 µM) 90.8% and 91.6%; (compound 0.01 µM) 93.4% and 91.1%; (compound 0.0316 µM) 86.8% and 89.5%; (compound 0.1 µM) 73.8% and 66.2%. Besides, the half-maximal inhibitory concentration (IC50) (curve of compound) was greater than 100 nM.

For `CC(C)n1nc(-c2ccc3oc(N)nc3c2)c2c(N)ncnc21`, the viability, T/C is 107% and 99.8% (compound 0.000316 µM); 89.1% and 102% (compound 0.001 µM); 80.7% and 95.7% (compound 0.00316 µM); 79.8% and 95.6% (compound 0.01 µM); 51.6% and 63.9% (compound 0.0316 µM); 39% and 41.8% (compound 0.1 µM). Moreover, for the setting “curve of compound”, the concentration for half-maximal inhibition (IC50) was 47.2 nM and 65.2 nM.
